Laboratory results published in ChEMBL document CHEMBL1201862, “PubChem BioAssay data set” (2004).
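Each compound was tested at five concentrations against cells in 96-well plates for 48 hours. Here, GI50 denotes the concentration required for 50% inhibition of growth.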 The source made the active and inactive calls. Cut-off read from the data, not from the text of the source: active = GI50 up to about 1.1 µM and inactive = higher.

Experiments:
Assay in all cases: growth of human tumour cells (NCI), 48 h
A549 = test system: A549
BT-549 = test system: BT-549
CCRF-CEM = test system: CCRF-CEM
DU-145 = test system: DU-145
HOP-62 = test system: HOP-62
HOP-92 = test system: HOP-92
HT-29 = test system: HT-29
K562 = test system: K562
KM12 = test system: KM12
MCF7 = test system: MCF7
MDA-MB-435 = test system: MDA-MB-435
Malme-3M = test system: Malme-3M
NCI/ADR-RES = test system: NCI/ADR-RES
OVCAR-3 = test system: OVCAR-3
OVCAR-4 = test system: OVCAR-4
OVCAR-5 = test system: OVCAR-5
SNB-19 = test system: SNB-19
SR = test system: SR
UACC-257 = test system: UACC-257

Structure (SMILES)	GI50 (A549)	GI50 (BT-549)	GI50 (CCRF-CEM)	GI50 (DU-145)	GI50 (HOP-62)	GI50 (HOP-92)	GI50 (HT-29)	GI50 (K562)	GI50 (KM12)	GI50 (MCF7)	GI50 (MDA-MB-435)	GI50 (Malme-3M)	GI50 (NCI/ADR-RES)	GI50 (OVCAR-3)	GI50 (OVCAR-4)	GI50 (OVCAR-5)	GI50 (SNB-19)	GI50 (SR)	GI50 (UACC-257)
N#Cc1c(NC(=O)C(F)(F)F)sc2c3c(=O)c4ccccc4c(=O)c=3oc3ccccc3c12	19 µM (inactive)	19.6 µM (inactive)	4.24 µM (inactive)	15.3 µM (inactive)	20.5 µM (inactive)	19.7 µM (inactive)	19.2 µM (inactive)	19.8 µM (inactive)	9.84 µM (inactive)	20.2 µM (inactive)	17.1 µM (inactive)	1.1 µM (active)	24.8 µM (inactive)	10.8 µM (inactive)	14.7 µM (inactive)	30.7 µM (inactive)	20.3 µM (inactive)	3.28 µM (inactive)	16.7 µM (inactive)
CC(CC(=O)O)(CC(=O)O)C(=O)O	> 100 µM (inactive)	> 100 µM (inactive)	–	> 100 µM (inactive)	> 100 µM (inactive)	> 100 µM (inactive)	> 100 µM (inactive)	> 100 µM (inactive)	> 100 µM (inactive)	> 100 µM (inactive)	> 100 µM (inactive)	> 100 µM (inactive)	> 100 µM (inactive)	> 100 µM (inactive)	> 100 µM (inactive)	> 100 µM (inactive)	> 100 µM (inactive)	> 100 µM (inactive)	> 100 µM (inactive)
CC[C@@H](C)[C@H](NC(=O)[C@H](Cc1ccccc1)NCC(F)(F)F)C(=O)OC(C)(C)C	> 100 µM (inactive)	> 100 µM (inactive)	74.8 µM (inactive)	> 100 µM (inactive)	> 100 µM (inactive)	> 100 µM (inactive)	> 100 µM (inactive)	> 100 µM (inactive)	> 100 µM (inactive)	> 100 µM (inactive)	> 100 µM (inactive)	> 100 µM (inactive)	> 100 µM (inactive)	89.9 µM (inactive)	82.2 µM (inactive)	> 100 µM (inactive)	> 100 µM (inactive)	> 100 µM (inactive)	81.5 µM (inactive)
COC(=O)C1=C(OC(=O)/C(=C/c2ccccc2)c2ccc(Cl)cc2Cl)C(C(=O)OC)[C@@]2(O)[C@@H](C(=O)OC)[C@H](C)C[C@@H]1[C@@H]2C(=O)OC (some centres not stated)	> 100 µM (inactive)	> 100 µM (inactive)	> 100 µM (inactive)	> 100 µM (inactive)	> 100 µM (inactive)	> 100 µM (inactive)	> 100 µM (inactive)	> 100 µM (inactive)	> 100 µM (inactive)	> 100 µM (inactive)	> 100 µM (inactive)	> 100 µM (inactive)	> 100 µM (inactive)	> 100 µM (inactive)	> 100 µM (inactive)	> 100 µM (inactive)	> 100 µM (inactive)	> 100 µM (inactive)	> 100 µM (inactive)
COc1ccc(NC(=S)N/N=C/c2cccc(C)n2)cc1	5.22 µM (inactive)	10.7 µM (inactive)	2.82 µM (inactive)	5.56 µM (inactive)	4.32 µM (inactive)	5.65 µM (inactive)	3.94 µM (inactive)	1.62 µM (inactive)	3.98 µM (inactive)	3.59 µM (inactive)	1.04 µM (active)	3.13 µM (inactive)	2.78 µM (inactive)	3.48 µM (inactive)	> 24.1 µM (inactive)	31.5 µM (inactive)	7.16 µM (inactive)	3.42 µM (inactive)	2.53 µM (inactive)
CCOC(=O)C1C(=O)CC(O)(c2ccccc2)C(C(=O)OCC)C1c1ccc(OC)cc1 (configuration not stated)	47 µM (inactive)	34.7 µM (inactive)	18.2 µM (inactive)	47.3 µM (inactive)	25.5 µM (inactive)	15.3 µM (inactive)	6.82 µM (inactive)	5.27 µM (inactive)	6.31 µM (inactive)	27 µM (inactive)	3.24 µM (inactive)	26.2 µM (inactive)	19.6 µM (inactive)	12.4 µM (inactive)	28.6 µM (inactive)	50.6 µM (inactive)	22.5 µM (inactive)	4.23 µM (inactive)	58.3 µM (inactive)
Cc1nc2ccccc2n1Cc1ccc(NC(=S)Nc2ccccc2)cc1	80 µM (inactive)	61.1 µM (inactive)	36.8 µM (inactive)	73.8 µM (inactive)	> 100 µM (inactive)	61.9 µM (inactive)	32.8 µM (inactive)	33.4 µM (inactive)	54.6 µM (inactive)	27.4 µM (inactive)	46.9 µM (inactive)	30.4 µM (inactive)	72.3 µM (inactive)	27.9 µM (inactive)	28.6 µM (inactive)	37.1 µM (inactive)	> 100 µM (inactive)	20.2 µM (inactive)	32.7 µM (inactive)
O=[N+]([O-])c1ccc(C(O)(C#CCN2CCCC2)c2ccccc2)cc1 (configuration not stated)	81.5 µM (inactive)	77.4 µM (inactive)	24.5 µM (inactive)	> 100 µM (inactive)	92.5 µM (inactive)	10.2 µM (inactive)	17 µM (inactive)	19.7 µM (inactive)	41.8 µM (inactive)	53.7 µM (inactive)	24.1 µM (inactive)	16.6 µM (inactive)	69.5 µM (inactive)	49 µM (inactive)	31.5 µM (inactive)	57.9 µM (inactive)	98.2 µM (inactive)	23.7 µM (inactive)	25.6 µM (inactive)
CC1CN(c2cc3c(cc2F)c(=O)c(C(=O)O)cn3-c2ccc(F)cn2)CC(C)N1 (configuration not stated)	> 100 µM (inactive)	> 100 µM (inactive)	> 100 µM (inactive)	> 100 µM (inactive)	> 100 µM (inactive)	> 100 µM (inactive)	> 100 µM (inactive)	> 100 µM (inactive)	> 100 µM (inactive)	> 100 µM (inactive)	> 100 µM (inactive)	> 100 µM (inactive)	> 100 µM (inactive)	> 100 µM (inactive)	> 100 µM (inactive)	> 100 µM (inactive)	> 100 µM (inactive)	> 100 µM (inactive)	> 100 µM (inactive)
O=C1c2c(O)ccc(O)c2C(=O)c2c(NCCNC(=O)C(O)C(O)C(O)C(O)CO)ccc(NCCNC(=O)C(O)C(O)C(O)C(O)CO)c21 (configuration not stated)	< 0.01 µM (active)	0.121 µM (active)	0.0316 µM (active)	< 0.01 µM (active)	0.011 µM (active)	< 0.01 µM (active)	0.03 µM (active)	0.0104 µM (active)	0.0277 µM (active)	< 0.01 µM (active)	0.355 µM (active)	0.212 µM (active)	0.133 µM (active)	0.279 µM (active)	0.18 µM (active)	0.192 µM (active)	< 0.01 µM (active)	< 0.01 µM (active)	1.11 µM (active)
CCOC(=O)c1cn2c(n1)sc1cc(Cl)ccc12	15.6 µM (inactive)	> 100 µM (inactive)	5.45 µM (inactive)	10.7 µM (inactive)	18.1 µM (inactive)	> 100 µM (inactive)	17 µM (inactive)	2.86 µM (inactive)	4.54 µM (inactive)	4.2 µM (inactive)	5.68 µM (inactive)	13.1 µM (inactive)	19.6 µM (inactive)	14.1 µM (inactive)	> 100 µM (inactive)	15 µM (inactive)	8.28 µM (inactive)	1.55 µM (inactive)	26.7 µM (inactive)
C#CC(O)Cc1ccc(OC)c2occc12 (configuration not stated)	> 100 µM (inactive)	> 100 µM (inactive)	–	> 100 µM (inactive)	> 100 µM (inactive)	> 100 µM (inactive)	> 100 µM (inactive)	> 100 µM (inactive)	> 100 µM (inactive)	> 100 µM (inactive)	> 100 µM (inactive)	> 100 µM (inactive)	> 100 µM (inactive)	> 100 µM (inactive)	> 100 µM (inactive)	> 100 µM (inactive)	> 100 µM (inactive)	> 100 µM (inactive)	> 100 µM (inactive)
O=C(N/N=C\c1ccc2ccccc2c1)Nc1ccc([N+](=O)[O-])cc1	26.4 µM (inactive)	24.3 µM (inactive)	28.6 µM (inactive)	23.7 µM (inactive)	27 µM (inactive)	17.5 µM (inactive)	21.3 µM (inactive)	9.84 µM (inactive)	33.4 µM (inactive)	22.3 µM (inactive)	31.1 µM (inactive)	27.7 µM (inactive)	20.9 µM (inactive)	20.2 µM (inactive)	22.1 µM (inactive)	22.5 µM (inactive)	24.3 µM (inactive)	43 µM (inactive)	29 µM (inactive)
COc1ccc(-c2cc(O)c3cc(OC)c(OC)cc3n2)cc1OC	> 100 µM (inactive)	> 100 µM (inactive)	> 100 µM (inactive)	> 100 µM (inactive)	37.7 µM (inactive)	64.4 µM (inactive)	> 100 µM (inactive)	> 100 µM (inactive)	> 100 µM (inactive)	> 100 µM (inactive)	> 100 µM (inactive)	> 100 µM (inactive)	> 100 µM (inactive)	> 100 µM (inactive)	> 100 µM (inactive)	> 100 µM (inactive)	> 100 µM (inactive)	> 100 µM (inactive)	> 100 µM (inactive)
Nc1nc(O)c2ncn([C@H]3CC[C@@H](CO)O3)c2n1	–	> 100 µM (inactive)	> 100 µM (inactive)	> 100 µM (inactive)	> 100 µM (inactive)	> 100 µM (inactive)	> 100 µM (inactive)	> 100 µM (inactive)	> 100 µM (inactive)	> 100 µM (inactive)	> 100 µM (inactive)	> 100 µM (inactive)	> 100 µM (inactive)	> 100 µM (inactive)	> 100 µM (inactive)	> 100 µM (inactive)	> 100 µM (inactive)	> 100 µM (inactive)	> 100 µM (inactive)
